The values that follow come from the supplement of paper PMC10307832.

Common to all, as to assay: relative viability (nuclei count vs DMSO), 5 days (fraction); higher = more cells survive
Compound in the assay “BAM7 + Pictilisib”: CCOC1=CC=CC=C1N=NC2=C(NN(C2=O)C3=NC(=CS3)C4=CC=CC=C4)C [BAM7] + CS(=O)(=O)N1CCN(Cc2cc3nc(-c4cccc5[nH]ncc45)nc(N4CCOCC4)c3s2)CC1 [Pictilisib] (partner 1 µM)
In outline: (§1)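 Medians of duplicate plates are given as relative viability. That measure is the nuclei count in treated wells divided by the count in vehicle wells. Counts were taken on 4× images of lung cancer cell lines in 1536-well plates, 5 days after pin-tool dosing the day after seeding with one drug alone or a fixed anchor-drug dose plus five library-drug doses (not always all listed) in √10 steps.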

Compound in the assay “BAM7 + Bortezomib”: CCOC1=CC=CC=C1N=NC2=C(NN(C2=O)C3=NC(=CS3)C4=CC=CC=C4)C [BAM7] + CC(C)C[C@H](NC(=O)[C@H](Cc1ccccc1)NC(=O)c1cnccn1)B(O)O [Bortezomib] (partner 0.002 µM)
Put shortly: as §1

Compound in the assay “BAM7 + Olaparib”: CCOC1=CC=CC=C1N=NC2=C(NN(C2=O)C3=NC(=CS3)C4=CC=CC=C4)C [BAM7] + O=C(c1cc(Cc2n[nH]c(=O)c3ccccc23)ccc1F)N1CCN(C(=O)C2CC2)CC1 [Olaparib] (partner 8 µM)
Put shortly: as §1

Compound in assay [1]: CCn1c(-c2nonc2N)nc2c(C#CC(C)(C)O)ncc(OC[C@H]3CCCNC3)c21 + Cc1nc(Nc2ncc(C(=O)Nc3c(C)cccc3Cl)s2)cc(N2CCN(CCO)CC2)n1 [Dasatinib] (partner 0.075 µM)
Put shortly: as §1

In the case of NCI-H1792, the relative viability with BAM7 + Pictilisib (first compound 0.5 µM) was 0.282; in the assay with BAM7 + Pictilisib (first compound 5 µM), 0.258; in the assay with BAM7 + Pictilisib (first compound 15.81 µM), 0.228; in the assay with BAM7 + Pictilisib (first compound 50 µM), 0.289; with BAM7 + Bortezomib (first compound 0.5 µM), 1.09; in the assay with BAM7 + Bortezomib (first compound 5 µM), 1.06. The relative viability came to 0.97 with BAM7 + Bortezomib (first compound 15.81 µM); 0.957 with BAM7 + Bortezomib (first compound 50 µM); 0.42 with BAM7 + Olaparib (first compound 0.5 µM); 0.374 in the assay with BAM7 + Olaparib (first compound 5 µM); 0.391 with BAM7 + Olaparib (first compound 15.81 µM); 0.425 in the assay with BAM7 + Olaparib (first compound 50 µM). In addition, the relative viability was 0.758 in assay [1] (first compound 0.01 µM), 0.818 in assay [1] (first compound 0.1 µM), 0.705 in assay [1] (first compound 0.3162 µM) and 0.897 in assay [1] (first compound 1 µM).
Consider NCI-H1915, for which the relative viability in the assay with BAM7 + Pictilisib (first compound 0.5 µM) is 1.01; with BAM7 + Pictilisib (first compound 5 µM) it was 1.15; with BAM7 + Pictilisib (first compound 15.81 µM), 0.898; with BAM7 + Pictilisib (first compound 50 µM), 1.04; with BAM7 + Bortezomib (first compound 0.5 µM) it was 0.988; with BAM7 + Bortezomib (first compound 5 µM) it was 1.01. Further, the relative viability with BAM7 + Bortezomib (first compound 15.81 µM) worked out at 1.09; in the assay with BAM7 + Bortezomib (first compound 50 µM) it was 1.03; in the assay with BAM7 + Olaparib (first compound 0.5 µM), 0.269; with BAM7 + Olaparib (first compound 5 µM) it was 0.262; in the assay with BAM7 + Olaparib (first compound 15.81 µM) it was 0.223; with BAM7 + Olaparib (first compound 50 µM), 0.259. The relative viability came to 0.295 in assay [1] (first compound 0.01 µM); 0.309 in assay [1] (first compound 0.03162 µM); 0.324 in assay [1] (first compound 0.1 µM); 0.302 in assay [1] (first compound 0.3162 µM); 0.368 in assay [1] (first compound 1 µM).
For NCI-H1975, the relative viability in the assay with BAM7 + Pictilisib (first compound 0.5 µM) came to 0.29; in the assay with BAM7 + Pictilisib (first compound 5 µM), 0.259; in the assay with BAM7 + Pictilisib (first compound 50 µM), 0.283; with BAM7 + Bortezomib (first compound 0.5 µM), 0.356; with BAM7 + Bortezomib (first compound 5 µM) it was 0.379; in the assay with BAM7 + Bortezomib (first compound 50 µM), 0.386. Besides, the relative viability in the assay with BAM7 + Olaparib (first compound 0.5 µM) amounted to 0.498; with BAM7 + Olaparib (first compound 5 µM), 0.617; with BAM7 + Olaparib (first compound 15.81 µM), 0.393; in the assay with BAM7 + Olaparib (first compound 50 µM), 0.602; in assay [1] (first compound 0.01 µM) it was 0.355; in assay [1] (first compound 0.03162 µM), 0.462. The relative viability was 0.412 in assay [1] (first compound 0.1 µM), 0.376 in assay [1] (first compound 0.3162 µM) and 0.306 in assay [1] (first compound 1 µM).
As to NCI-H1993, the relative viability was 0.82 in the assay with BAM7 + Pictilisib (first compound 0.5 µM); 0.896 with BAM7 + Pictilisib (first compound 5 µM); 0.778 with BAM7 + Pictilisib (first compound 15.81 µM); 0.879 with BAM7 + Pictilisib (first compound 50 µM); 0.843 with BAM7 + Bortezomib (first compound 0.5 µM); 0.836 in the assay with BAM7 + Bortezomib (first compound 5 µM). Further, the relative viability with BAM7 + Bortezomib (first compound 15.81 µM) is 0.472; in the assay with BAM7 + Bortezomib (first compound 50 µM), 1.09; in the assay with BAM7 + Olaparib (first compound 0.5 µM) it was 0.955; with BAM7 + Olaparib (first compound 5 µM) it was 1.08; with BAM7 + Olaparib (first compound 15.81 µM), 0.888; with BAM7 + Olaparib (first compound 50 µM), 0.98. Besides, the relative viability in assay [1] (first compound 0.01 µM) worked out at 0.759; in assay [1] (first compound 0.03162 µM), 0.531; in assay [1] (first compound 0.1 µM) it was 0.603; in assay [1] (first compound 0.3162 µM) it was 0.473; in assay [1] (first compound 1 µM), 0.527.
For the cell line NCI-H2009, the relative viability in the assay with BAM7 + Pictilisib (first compound 0.5 µM) was 0.899; with BAM7 + Pictilisib (first compound 5 µM), 0.827; with BAM7 + Pictilisib (first compound 15.81 µM), 0.846; in the assay with BAM7 + Pictilisib (first compound 50 µM), 0.854; with BAM7 + Bortezomib (first compound 0.5 µM) it was 0.976; with BAM7 + Bortezomib (first compound 5 µM) it was 1.29. In addition, the relative viability in the assay with BAM7 + Bortezomib (first compound 15.81 µM) was determined as 0.926; with BAM7 + Bortezomib (first compound 50 µM), 0.971; with BAM7 + Olaparib (first compound 0.5 µM), 0.716; with BAM7 + Olaparib (first compound 5 µM), 0.727; with BAM7 + Olaparib (first compound 15.81 µM), 0.662; in the assay with BAM7 + Olaparib (first compound 50 µM) it was 0.663. Also, the relative viability worked out at 0.257 in assay [1] (first compound 0.01 µM); 0.33 in assay [1] (first compound 0.03162 µM); 0.287 in assay [1] (first compound 0.1 µM); 0.254 in assay [1] (first compound 0.3162 µM); 0.283 in assay [1] (first compound 1 µM).
